Results on nine compounds are retold here after patent publication US20200055948A1, “CELLS EXPRESSING A BCMA-TARGETING CHIMERIC ANTIGEN RECEPTOR, AND COMBINATION THERAPY WITH A GAMMA SECRETASE INHIBITOR” (Novartis AG, priority 2017, published 2020).

Molecules are shown by their SMILES.

For assay [1], the system named is BCMA cell surface expression. In words: BCMA cell surface expression by flow cytometry with PE conjugated BCMA antibody, with or without GSI (Example 1, FIG. 1). The assay is classed as cell-based, human. The note with it: BCMA-expressing multiple myeloma cell lines. How it is done: FIG. 1 is a set of histogram plots showing the staining of BCMA-expressing human cancer cell lines, NCI-H929, MM1S, and U266B1, using a PE conjugated anti-BCMA antibody. The cell lines were untreated, or treated with 1.0 μM DAPT or 0.1 μM LY-411,575 before subjected to a flow cytometry analysis.
Human cancer cell lines expressing various levels of human BCMA (NCI-H929^[High] MM1S^[Med], and U266B1^[low]) were all transduced to constitutively express luciferase, which is used to measure cell viability/survival with the BrightGlo reagent (Promega # E2650).
BCMA expressing cell lines were treated overnight with and without GSIs. Cell culture supernatants were collected and quantified for levels of soluble BCMA by ELISA (R&D Systems, # DY193). Additionally, remaining cells were pelleted, stained with a PE conjugated BCMA antibody (clone 19F2, Biolegend #357504) and analyzed by flow cytometry for BCMA cell surface expression levels.
BCMA cell surface expression level was determined by flow cytometry on cell lines with or without GSI treatment.
On the technique in general: Flow cytometry measures light scatter and fluorescence of single cells or particles in a stream.

A further assay deals with shed/soluble BCMA. In words: GSI inhibition of shed/soluble BCMA (sBCMA), ELISA of supernatants after 72 hours, NCI-H929, MM1S, U266B1 (Example 2, Table 30, FIG. 3). It is filed as cell-based, human. The conditions noted are these: for EC50: Homo sapiens, 72 hours, ELISA of supernatants; for efficacious concentrations, rank among the panel of GSIs: inhibition of BCMA shedding and enhancement of membrane BCMA, Table 30. How it is done: (§1) FIG. 3 is a panel of graphs comparing soluble/shed BCMA (sBCMA) levels to membrane-bound BCMA (mBCMA) levels in MM1S cell cultures treated with various gamma secretase inhibitors for 72 hours.
(§2) Target human cancer cell lines expressing various levels of human BCMA (NCI-H929^[High], MM1S^[med], U266B1^[low]) were all transduced to constitutively express luciferase, which is used to measure cell viability/survival with the BrightGlo reagent (Promega E2650). Target cells were plated 30,000 cells per well in a 96 well plate (Costar 3904) together with serial dilutions of a panel of gamma secretase inhibitors (Table 29). The plate was incubated at 37° C./5% CO2 for 72 hours, followed by measurements of cell viability (BrightGlo, Promega # E2650) according to vendor protocol. In a replicate set of assay plates, cell culture supernatants were collected by centrifugation and quantified for levels of soluble BCMA by ELISA (R&D Systems, DY193), and the remaining cells were stained with a PE conjugated BCMA antibody (clone 19F2, Biolegend 357504) and analyzed by flow cytometry for BCMA cell surface expression levels.
(§3) Raw OD450 values from the BCMA ELISA were plotted together with the mean fluorescent intensity values from flow cytometry analysis of cells stained with anti-BCMA antibody, and are shown for MM1S cells treated with the various GSIs in FIG. 3. Table 30 summarizes the EC50 results of all the GSIs on the three BCMA-expressing cell lines.
For orientation: An ELISA detects its analyte on a solid surface through an enzyme-linked reagent.

The next assay deals with membrane BCMA expression. In words: GSI enhancement of membrane BCMA (mBCMA) expression, flow cytometry after 72 hours, NCI-H929, MM1S, U266B1 (Example 2, Table 30, FIG. 3). The assay is classed as cell-based. The note with it: Homo sapiens. How it is done: as §1, §2, §3
The test system of another assay is soluble BCMA. In words: Soluble BCMA in supernatants of MM cell lines U266 or RPMI 8226 by sandwich ELISA after 48 hrs GSI (Example 3, FIGS. 5A and 5B). The assay is classed as cell-based, human. The note with it: RPMI 8226 cells treated, 6 μM-100 μM. How it is done: FIGS. 5A and 5B are a pair of graphs showing that a gamma secretase inhibitor reduces soluble BCMA released by MM cell lines. In FIGS. 5A and 5B, the amount of soluble BCMA (pg/ml) as measured by ELISA is plotted for each GSI concentration tested.
MM cell lines U266 or RPMI 8226 were incubated with several concentrations (6 μM-100 μM) of Ly 411575 gamma secretase inhibitor (Miltenyi) for 48 hrs. Supernatants were collected and secreted BCMA was measured using a sandwich ELISA (BCMA/TNFRSF17 ELISA Duo set, R&D Systems).

The EC50 is the concentration giving half of the maximal effect. Turning to `C[C@H](NC(=O)Cc1cc(F)cc(F)c1)C(=O)N[C@H](C(=O)OC(C)(C)C)c1ccccc1` [DAPT], the “cell surface expression of BCMA (in words)” value in assay [1] is given as “strongly enhances”. The EC50 with shed/soluble BCMA (MM1.S, MM1S cells) stood at 144 nM; with shed/soluble BCMA (NCI-H929, H929 cells), 220 nM; in the assay with shed/soluble BCMA (U266B1 cells), 459 nM; in the assay on membrane BCMA expression (MM1.S, MM1S cells) it was 97.4 nM; in the assay on membrane BCMA expression (NCI-H929, H929 cells), 145 nM; in the assay on membrane BCMA expression (U266B1 cells) it was 401 nM.
For the compound `NC(=O)[C@@H](CCC(F)(F)F)N(Cc1ccc(-c2ncon2)cc1F)S(=O)(=O)c1ccc(Cl)cc1` [BMS-708163, (R)-2-((4-chloro-N-(2-fluoro-4-(1,2,4-oxadiazol-3-yl)benzyl)phenyl)sulfonamido)-5,5,5-trifluoropentanamide], the concentration giving a half-maximal response (EC50) amounted to 13.3 nM with shed/soluble BCMA (MM1.S, MM1S cells); 2.5 nM with shed/soluble BCMA (NCI-H929, H929 cells); 29.8 nM in the assay on shed/soluble BCMA (U266B1 cells); 7.4 nM in the assay with membrane BCMA expression (MM1.S, MM1S cells); 3.6 nM with membrane BCMA expression (NCI-H929, H929 cells); 32.4 nM in the assay on membrane BCMA expression (U266B1 cells).
On to `C[C@H](c1ccc(F)cc1CCCC(=O)O)N(c1cc(F)ccc1F)S(=O)(=O)c1ccc(Cl)cc1` [BMS-299897], for which the half-maximal effective concentration (EC50) amounted to 800 nM in the assay on shed/soluble BCMA (MM1.S, MM1S cells); 528 nM in the assay with shed/soluble BCMA (NCI-H929, H929 cells); 485 nM with membrane BCMA expression (MM1.S, MM1S cells); 152 nM in the assay with membrane BCMA expression (NCI-H929, H929 cells); 1690 nM in the assay with membrane BCMA expression (U266B1 cells). Moreover, in the assay with shed/soluble BCMA, the “efficacious concentrations, rank among the panel of GSIs” value is given as “least”.
On to `O=C(O)CC[C@H]1CC[C@@](c2cc(F)ccc2F)(S(=O)(=O)c2ccc(Cl)cc2)CC1` [MK-0752, 3-((1S,4R)-4-((4-chlorophenyl)sulfonyl)-4-(2,5-difluorophenyl)cyclohexyl)propanoic acid], for which the concentration for a half-maximal effect (EC50) in the assay on shed/soluble BCMA (MM1.S, MM1S cells) turned out to be 566 nM; with shed/soluble BCMA (NCI-H929, H929 cells) it was 269 nM; with shed/soluble BCMA (U266B1 cells) it was 1060 nM; with membrane BCMA expression (MM1.S, MM1S cells) it was 332 nM; in the assay with membrane BCMA expression (NCI-H929, H929 cells), 69.3 nM; with membrane BCMA expression (U266B1 cells) it was 1210 nM.
For `CC(C)(C(=O)NCC(F)(F)C(F)(F)F)C(=O)N[C@@H]1C(=O)Nc2ccccc2-c2ccccc21` [RO4929097], the EC50 in the assay on shed/soluble BCMA (MM1.S, MM1S cells) was found to be 4.6 nM; with shed/soluble BCMA (NCI-H929, H929 cells), 3 nM; in the assay on shed/soluble BCMA (U266B1 cells), 6.2 nM; in the assay with membrane BCMA expression (MM1.S, MM1S cells), 3.2 nM; with membrane BCMA expression (NCI-H929, H929 cells), 4.4 nM; in the assay with membrane BCMA expression (U266B1 cells), 10.1 nM.
Take `CCC[C@H](N[C@H]1CCc2cc(F)cc(F)c2C1)C(=O)Nc1cn(C(C)(C)CNCC(C)(C)C)cn1` [PF-3084014, (S)-2-(((S)-6,8-difluoro-1,2,3,4-tetrahydronaphthalen-2-yl)amino)-N-(1-(2-methyl-1-(neopentylamino)propan-2-yl)-1H-imidazol-4-yl)pentanamide]: the concentration giving a half-maximal response (EC50) came out at 32.2 nM with shed/soluble BCMA (MM1.S, MM1S cells); 34.8 nM in the assay with shed/soluble BCMA (NCI-H929, H929 cells); 67.2 nM with shed/soluble BCMA (U266B1 cells); 36.6 nM in the assay with membrane BCMA expression (MM1.S, MM1S cells); 31.6 nM with membrane BCMA expression (NCI-H929, H929 cells); 70.4 nM with membrane BCMA expression (U266B1 cells).
With `CC(C)[C@H](O)C(=O)N[C@@H](C)C(=O)N[C@@H]1C(=O)N(C)CCc2ccccc21` [LY-450139, (S)-2-hydroxy-3-methyl-N—((S)-1-(((S)-3-methyl-2-oxo-2,3,4,5-tetrahydro-1H-benzo[d]azepin-1-yl)amino)-1-oxopropan-2-yl)butanamide], the EC50 with shed/soluble BCMA (MM1.S, MM1S cells) was 65 nM; with shed/soluble BCMA (NCI-H929, H929 cells) it was 99.9 nM; with shed/soluble BCMA (U266B1 cells), 236 nM; with membrane BCMA expression (MM1.S, MM1S cells), 40.7 nM; in the assay with membrane BCMA expression (NCI-H929, H929 cells), 54.8 nM; with membrane BCMA expression (U266B1 cells) it was 190 nM.
`C[C@H](NC(=O)[C@@H](O)c1cc(F)cc(F)c1)C(=O)N[C@@H]1C(=O)N(C)c2ccccc2-c2ccccc21` [LY-411575, (S)-2-((S)-2-(3,5-difluorophenyl)-2-hydroxyacetamido)-N—((S)-5-methyl-6-oxo-6,7-dihydro-5H-dibenzo[b,c]azepin-7-yl)propanamide]: the “cell surface expression of BCMA (in words)” value in assay [1] is given as “strongly enhances”. Further, the half-maximal effective concentration (EC50) in the assay with shed/soluble BCMA (MM1.S, MM1S cells) worked out at 0.1 nM; in the assay on shed/soluble BCMA (NCI-H929, H929 cells), 0.2 nM; in the assay on shed/soluble BCMA (U266B1 cells), 0.1 nM; in the assay with membrane BCMA expression (NCI-H929, H929 cells), 0.1 nM; in the assay with membrane BCMA expression (U266B1 cells), 0.1 nM. In addition, the “efficacious concentrations, rank among the panel of GSIs” value in the assay on shed/soluble BCMA was “most potent”. Further, the “secreted BCMA” value in the assay on soluble BCMA was 200 pg/mL.
Regarding `O=S(=O)(N[C@@H](CO)C(C(F)(F)F)C(F)(F)F)c1ccc(Cl)s1` [PF-5212362, (R)-5-chloro-N-(4,4,4-trifluoro-1-hydroxy-3-(trifluoromethyl)butan-2-yl)thiophene-2-sulfonamide], the EC50 in the assay on shed/soluble BCMA (MM1.S, MM1S cells) was 121 nM; in the assay on shed/soluble BCMA (NCI-H929, H929 cells), 137 nM; in the assay with shed/soluble BCMA (U266B1 cells), 583 nM; in the assay on membrane BCMA expression (MM1.S, MM1S cells), 52.2 nM; with membrane BCMA expression (NCI-H929, H929 cells), 13.8 nM; with membrane BCMA expression (U266B1 cells), 560 nM.
